The values below come from patent US20240262832A1, “SMALL MOLECULE MODULATORS OF GLUCOCEREBROSIDASE ACTIVITY AND USES THEREOF” (Vanqua Bio, Inc., priority 2021, published 2024).

This assay concerns the target T1, GCase (Homo sapiens, UniProt P04062).
T1 construct: endogenous in cells; host or cells: HeLa cells
T1 sequence (P04062 40-536): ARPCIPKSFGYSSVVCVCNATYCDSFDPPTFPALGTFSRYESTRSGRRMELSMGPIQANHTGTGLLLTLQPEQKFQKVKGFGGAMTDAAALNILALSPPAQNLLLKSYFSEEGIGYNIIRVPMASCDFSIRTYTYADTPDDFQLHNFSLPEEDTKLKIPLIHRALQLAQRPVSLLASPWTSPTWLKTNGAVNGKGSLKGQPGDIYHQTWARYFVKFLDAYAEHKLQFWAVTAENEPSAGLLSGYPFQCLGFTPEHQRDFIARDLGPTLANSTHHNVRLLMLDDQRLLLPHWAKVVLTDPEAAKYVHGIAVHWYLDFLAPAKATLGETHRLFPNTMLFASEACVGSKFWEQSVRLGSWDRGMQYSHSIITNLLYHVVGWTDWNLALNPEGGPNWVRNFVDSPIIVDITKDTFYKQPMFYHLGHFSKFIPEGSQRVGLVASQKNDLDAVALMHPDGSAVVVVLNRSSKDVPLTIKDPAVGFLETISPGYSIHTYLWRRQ
Put plainly: activation of GCase in a live cell PFB assay in HELA cells. Format: cell-based.
Regarding `O=C(Cc1ccnn(-c2ccccc2)c1=O)N1CCCC(COc2ccccc2)C1` (stereo not shown) [Compound 44, 4-(2-Oxo-2-(3-(phenoxymethyl)piperidin-1-yl)ethyl)-2-phenylpyridazin-3(2H)-one], the EC50 (commonly the concentration that produces a half-maximal response) was over 100 µM.

`FC(F)Cn1ncc2ncc(N3CCC(F)(F)C(COc4cccnc4C(F)(F)F)C3)nc21` (stereo not shown) [Compound 20, 3-({1-[1-(2,2-difluoroethyl)-1H-pyrazolo[3,4-b]pyrazin-6-yl]-4,4-difluoropiperidin-3-yl}methoxy)-2-(trifluoromethyl)pyridine] displayed a half-maximal effective concentration (EC50) of under 10 µM.

`CC(=O)N1CCC(c2cc3ncc(N4CCCC(COc5ccccc5C)C4)nc3n2C)CC1` (stereo not shown) [Compound 86, 1-(4-(5-Methyl-3-(3-((o-tolyloxy)methyl)piperidin-1-yl)-5H-pyrrolo[2,3-b]pyrazin-6-yl)piperidin-1-yl)ethan-1-one] came in with a concentration for a half-maximal effect (EC50) of 10 to 50 µM.

Consider `COc1ccc(OCC2CCN(C(=O)COCC3CCCO3)CC2)cc1` (stereo not shown) [Compound 422], for which the EC50 was in the range of 10 to 50 µM.

Consider `COc1ccc(OCC2CCN(c3cc(C4CC(N)C4)ncn3)CC2)cc1` (stereo not shown) [Compound 482], for which the EC50 is over 100 µM.

In turn, `O=C(N1CCC(Oc2ccc(C(F)(F)F)cn2)CC1)C1(c2ccccc2)CCOCC1` [Compound 381] showed a concentration for a half-maximal effect (EC50) of 10 to 50 µM.

In turn, `COc1ccc(OCC2CCN(C(=O)c3cnc(O)cn3)CC2)cc1` [Compound 452] had a 50% effective concentration (EC50) of over 100 µM.

The molecule `C[C@H]1CCN(c2cnc3cnn(CC(F)F)c3n2)C[C@@H]1COc1cccnc1C(F)(F)F` [Compound 48c, 1-(2,2-difluoroethyl)-6-((3R,4S)-4-methyl-3-(((2-(trifluoromethyl)pyridin-3-yl)oxy)methyl)piperidin-1-yl)-1H-pyrazolo[3,4-b]pyrazine] had an EC50 of 10 to 50 µM.

As for `O=C(c1ccc2cc[nH]c2c1)N1CCC(Oc2cncc(C(F)(F)F)c2)CC1` [Compound 307, (1H-Indol-6-yl)(4-((5-(trifluoromethyl)pyridin-3-yl)oxy)piperidin-1-yl)methanone], the EC50 was in the range of 10 to 50 µM.

In the case of `COc1ccc(OCC2CCN(c3nncc(C)c3C)CC2)cc1` [Compound 430], the concentration for a half-maximal effect (EC50) was in the range of 50 to 100 µM.

The molecule `FC(F)Cn1ncc2ncc(N3C[C@@H]4[C@@H](COc5ccc(C(F)(F)F)nc5)[C@@H]4C3)nc21` [Compound 63, (1R,5S,6S)-3-[1-(2,2-difluoroethyl)-1H-pyrazolo[3,4-b]pyrazin-6-yl]-6-({[6-(trifluoromethyl)pyridin-3-yl]oxy}methyl)-3-azabicyclo[3.1.0]hexane] yielded a half-maximal effective concentration (EC50) of 10 to 50 µM.

`FC(F)(F)COCCn1ncc2ncc(N3CCCC(COc4cccnc4C(F)(F)F)C3)nc21` (stereo not shown) [Compound 248, 1-(2-(2,2,2-Trifluoroethoxy)ethyl)-6-(3-(((2-(trifluoromethyl)pyridin-3-yl)oxy)methyl)piperidin-1-yl)-1H-pyrazolo[3,4-b]pyrazine] showed an EC50 of under 10 µM.

Turning to `FC(F)(F)c1cccc(OC[C@@H]2[C@H]3CN(c4cncc(-c5nncs5)n4)C[C@@H]23)n1` [Compound 60, (1R,5S,6S)-3-[6-(1,3,4-thiadiazol-2-yl)pyrazin-2-yl]-6-({[6-(trifluoromethyl)pyridin-2-yl]oxy}methyl)-3-azabicyclo[3.1.0]hexane], the concentration for a half-maximal effect (EC50) is under 10 µM.

On to `C[C@@H]1CC[C@H](COc2ccc(C(F)(F)F)nc2)CN1c1cnc2cnn(CC(F)F)c2n1` [Compound 272, 1-(2,2-Difluoroethyl)-6-((2R,5S)-2-methyl-5-(((6-(trifluoromethyl)pyridin-3-yl)oxy)methyl)piperidin-1-yl)-1H-pyrazolo[3,4-b]pyrazine], for which the EC50 was 10 to 50 µM.

Turning to `O=C(c1nnc(C(F)(F)c2ccccc2)o1)N1CCCC(COc2ccccc2)C1` (stereo not shown) [Compound 51, (5-(Difluoro(phenyl)methyl)-1,3,4-oxadiazol-2-yl)(3-(phenoxymethyl)piperidin-1-yl)methanone], the half-maximal effective concentration (EC50) was over 100 µM.

In turn, `FC(F)Cn1ncc2ncc(N3C[C@@H]4[C@@H](COc5ncccc5C(F)(F)F)[C@@H]4C3)nc21` [Compound 89, (1R,5S,6S)-3-[1-(2,2-difluoroethyl)-1H-pyrazolo[3,4-b]pyrazin-6-yl]-6-({[3-(trifluoromethyl)pyridin-2-yl]oxy}methyl)-3-azabicyclo[3.1.0]hexane] registered an EC50 of 10 to 50 µM.

`O=C(c1cn(CC2CCCCC2)nn1)N1CCC(OCc2ccccc2)CC1` [Compound 419] came in with an EC50 of over 100 µM.

`FC(F)Cn1ncc2ncc(N3CCC(Oc4cc(C(F)(F)F)ccn4)CC3)nc21` [Compound 326, 1-(2,2-Difluoroethyl)-6-(4-((4-(trifluoromethyl)pyridin-2-yl)oxy)piperidin-1-yl)-1H-pyrazolo[3,4-b]pyrazine] displayed an EC50 of 10 to 50 µM.

For the molecule `Cc1ccccc1OCC1CCCN(C(=O)c2cnc3cc(-c4ccccc4)n(C)c3n2)C1` (stereo not shown) [Compound 49, (5-methyl-6-phenyl-5H-pyrrolo[2,3-b]pyrazin-3-yl)(3-((o-tolyloxy)methyl)piperidin-1-yl)methanone], the concentration giving a half-maximal response (EC50) was 10 to 50 µM.

Molecule `FC(F)(F)c1ccc2sc([C@H]3[C@@H]4CN(c5cnc6cnn(C7COC7)c6n5)C[C@@H]43)nc2c1` [Compound 290, 2-((1R,5S,6r)-3-(1-(Oxetan-3-yl)-1H-pyrazolo[3,4-b]pyrazin-6-yl)-3-azabicyclo[3.1.0]hexan-6-yl)-5-(trifluoromethyl)benzo[d]thiazole] gave an EC50 of 10 to 50 µM.

On to `O=C(c1cncc(-c2nncs2)n1)N1C[C@@H]2[C@@H](COc3cccc(C(F)(F)F)n3)[C@@H]2C1` [Compound 226, (1R,5S,6S)-3-[6-(1,3,4-thiadiazol-2-yl)pyrazine-2-carbonyl]-6-({[6-(trifluoromethyl)pyridin-2-yl]oxy}methyl)-3-azabicyclo[3.1.0]hexane], for which the concentration for a half-maximal effect (EC50) lay within 10 to 50 µM.

`C[C@@H]1CCN(c2cnc3cnn(CC(F)F)c3n2)C[C@H]1COc1cccnc1C(F)(F)F` [Compound 48d, 1-(2,2-difluoroethyl)-6-((3S,4R)-4-methyl-3-(((2-(trifluoromethyl)pyridin-3-yl)oxy)methyl)piperidin-1-yl)-1H-pyrazolo[3,4-b]pyrazine] yielded an EC50 of 10 to 50 µM.

As for `Cn1c(-c2cccc(C(F)(F)F)n2)nc2nc(N3C[C@@H]4[C@@H](COc5cc(F)cc(F)c5)[C@@H]4C3)cnc21` [Compound 227, 5-((1R,5S,6r)-6-((3,5-difluorophenoxy)methyl)-3-azabicyclo[3.1.0]hexan-3-yl)-1-methyl-2-(6-(trifluoromethyl)pyridin-2-yl)-1H-imidazo[4,5-b]pyrazine], the EC50 was under 10 µM.

The molecule `Cc1cnccc1-c1ccc(C(=O)N2CCCC(COc3ccccc3)C2)s1` (stereo not shown) [Compound 142] yielded a concentration giving a half-maximal response (EC50) of under 10 µM.

As to `FC(F)Cn1ncc2ncc(N3CC4CC4(COc4cccnc4C(F)(F)F)C3)nc21` (stereo not shown) [Compound 260, 3-[1-(2,2-Difluoroethyl)-1H-pyrazolo[3,4-b]pyrazin-6-yl]-1-({[2-(trifluoromethyl)pyridin-3-yl]oxy}methyl)-3-azabicyclo[3.1.0]hexane], the EC50 fell in the range of 10 to 50 µM.

Molecule `FC(F)(F)Cn1ncc2ncc(N3C[C@@H]4[C@@H](COc5cccnc5C(F)(F)F)[C@@H]4C3)nc21` [Compound 101, (1R,5S,6S)-3-[1-(2,2,2-Trifluoroethyl)-1H-pyrazolo[3,4-b]pyrazin-6-yl]-6-({[2-(trifluoromethyl)pyridin-3-yl]oxy}methyl)-3-azabicyclo[3.1.0]hexane] returned an EC50 of 10 to 50 µM.

In turn, `O=C(c1ccc(F)c(OC(F)(F)F)c1)N1CCCC(COc2ccccc2)C1` (stereo not shown) [Compound 217] displayed a 50% effective concentration (EC50) of 10 to 50 µM.

The molecule `COc1ccc(C(F)(F)C(=O)N2CCCC(COc3ccccc3)C2)cc1` (stereo not shown) [Compound 152] returned an EC50 of 10 to 50 µM.

`COc1ccc(OCC2CCN(Cc3ncc[nH]3)CC2)cc1` [Compound 450] returned an EC50 of 10 to 50 µM.

Turning to `FC(F)(F)c1cccc(OCC2CN(c3cncc(-c4nncs4)n3)CCC2(F)F)n1` (stereo not shown) [Compound 64, 2-[4,4-Difluoro-3-({[6-(trifluoromethyl)pyridin-2-yl]oxy}methyl)piperidin-1-yl]-6-(1,3,4-thiadiazol-2-yl)pyrazine], the EC50 is 10 to 50 µM.

Turning to `O=C(c1cc2cccc(Cl)c2s1)N1CCCC(COc2ccccc2)C1` (stereo not shown) [Compound 218], the EC50 lay in the range of 10 to 50 µM.

The molecule `CC(=O)N1CCC(c2cncc(N3CCCC(COc4ccccc4C(F)(F)F)C3)n2)C(C)C1` (stereo not shown) [Compound 112, 1-(3-methyl-4-(6-(3-((2-(trifluoromethyl)phenoxy)methyl)piperidin-1-yl)pyrazin-2-yl)piperidin-1-yl)ethan-1-one] came in with an EC50 of under 10 µM.

In turn, `CC(=O)N1CCC(c2cc3nc(C(=O)N4C[C@@H]5[C@@H](COc6cccc(C(F)(F)F)n6)[C@@H]5C4)cnc3n2C)CC1` [Compound 225, 1-(4-(5-Methyl-2-((1R,5S,6r)-6-(((6-(trifluoromethyl)pyridin-2-yl)oxy)methyl)-3-azabicyclo[3.1.0]hexane-3-carbonyl)-5H-pyrrolo[2,3-b]pyrazin-6-yl)piperidin-1-yl)ethan-1-one] gave an EC50 of over 100 µM.

Take `O=C(N1CCCC(COc2ccccc2)C1)C12CC3CC(CC(C3)C1)C2` (stereo not shown) [Compound 204]: the half-maximal effective concentration (EC50) lay in the range of 10 to 50 µM.

Consider `C=CCn1ncc(CN2CCC(COc3ccc(OC)cc3)CC2)c1C` [Compound 469], for which the EC50 is over 100 µM.

On to `C[C@@H]1[C@H](C(=O)N2CCCC(COc3ccccc3)C2)CCN1c1ccccc1` (stereo partly shown) [Compound 199], for which the concentration for a half-maximal effect (EC50) was 10 to 50 µM.

`O=C(c1nnc(C2(c3ccccc3)CCOC2)o1)N1CCCC(COc2ccccc2)C1` (stereo not shown) [Compound 76, 3-(phenoxymethyl)-1-[5-(3-phenyloxolan-3-yl)-1,3,4-oxadiazole-2-carbonyl]piperidine] had a half-maximal effective concentration (EC50) of 10 to 50 µM.
